Measured values from ChEMBL document CHEMBL1139763, “Pyrrolidines as potent functional agonists of the human melanocortin-4 receptor” (Bioorg Med Chem Lett, 2007).

What was measured:
Melanocortin receptor 4 [1] = target: T1, Melanocortin receptor 4 (Homo sapiens, UniProt P32245); assay: Displacement of [125I]NDP-MSH from human MC4R expressed in HEK293 cells; format: cell-based
Melanocortin receptor 4 [2] = target: T1, Melanocortin receptor 4; assay: Agonist activity at human MC4R expressed in HEK293 cells assessed as cAMP accumulation; format: functional, cell-based
Melanocortin receptor 4 [3] = target: T1, Melanocortin receptor 4; assay: Intrinsic activity at human MC4R expressed in HEK293 cells assessed as cAMP accumulation relative to alphaMSH; format: functional, cell-based

T1 sequence (P32245 whole entry): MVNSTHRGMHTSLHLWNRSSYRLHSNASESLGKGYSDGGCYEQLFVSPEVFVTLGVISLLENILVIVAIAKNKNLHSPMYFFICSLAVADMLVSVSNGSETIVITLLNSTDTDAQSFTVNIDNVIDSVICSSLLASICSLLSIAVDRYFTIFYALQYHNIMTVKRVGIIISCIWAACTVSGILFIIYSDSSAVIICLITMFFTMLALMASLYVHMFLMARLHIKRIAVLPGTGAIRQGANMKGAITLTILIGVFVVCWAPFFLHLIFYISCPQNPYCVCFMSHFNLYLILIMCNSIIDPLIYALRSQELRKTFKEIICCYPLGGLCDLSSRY

SMILES | Ki (Melanocortin receptor 4 [1]) [nM] | EC50 (Melanocortin receptor 4 [2]) [nM] | Intrinsic activity (Melanocortin receptor 4 [3]) [%]
CC(C)C[C@H](NC(=O)[C@H](C)N)c1cc(C(F)(F)F)ccc1N1CCN(C(=O)[C@@H]2CN(C(C)C)C[C@H]2c2ccc(Cl)cc2)CC1 | 47 | 210 | 104
CNCC(=O)N[C@H](c1cccc(F)c1N1CCN(C(=O)[C@@H]2CN(C(C)C)C[C@H]2c2ccc(Cl)cc2)CC1)C(C)C | 11 | 16 | 114
CC(C)N1C[C@@H](C(=O)N2CCN(c3ccccc3CN3CCNCC3)CC2)[C@H](c2ccc(Cl)cc2)C1 | 360 | – | –
Cc1cncn1Cc1ccccc1N1CCN(C(=O)[C@@H]2CN(C(C)C)C[C@H]2c2ccc(Cl)cc2)CC1 | 250 | – | –
COCCN(C)Cc1ccccc1N1CCN(C(=O)[C@@H]2CN(C(C)C)C[C@H]2c2ccc(Cl)cc2)CC1 | 320 | – | –
CC(C)N1C[C@@H](C(=O)N2CCN(c3ccccc3CN3CCN(C)CC3)CC2)[C@H](c2ccc(Cl)cc2)C1 | 840 | – | –
CC(C)N1C[C@@H](C(=O)N2CCN(c3ccccc3CN3CCC(N)CC3)CC2)[C@H](c2ccc(Cl)cc2)C1 | 92 | 390 | 40
CC(C)C[C@H](NC(=O)[C@@H](C)N)c1cc(C(F)(F)F)ccc1N1CCN(C(=O)[C@@H]2CN(C(C)C)C[C@H]2c2ccc(Cl)cc2)CC1 | 4.9 | 31 | 103
CC(=O)N[C@H](c1cc(C)ccc1N1CCN(C(=O)[C@@H]2CN(C(C)C)C[C@H]2c2ccc(Cl)cc2)CC1)C(C)C | 47 | – | 35
Cc1ccc(N2CCN(C(=O)[C@@H]3CN(C(C)C)C[C@H]3c3ccc(Cl)cc3)CC2)c([C@@H](NC(=O)CCN(C)C)C(C)C)c1 | 4.7 | 16 | 102
CC(C)CN(Cc1ccccc1N1CCN(C(=O)[C@@H]2CN(C(C)C)C[C@H]2c2ccc(Cl)cc2)CC1)CC(C)C | 1100 | – | –
CC(C)C[C@H](NC(=O)CCN)c1cc(C(F)(F)F)ccc1N1CCN(C(=O)[C@@H]2CN(C(C)C)C[C@H]2c2ccc(Cl)cc2)CC1 | 8.7 | 4.6 | 95
COc1ccccc1N1CCN(C(=O)[C@@H]2CN(C(C)C)C[C@H]2c2ccc(Cl)cc2)CC1 | 520 | – | –
CC(C)C[C@H](N)c1cc(C(F)(F)F)ccc1N1CCN(C(=O)[C@@H]2CN(C(C)C)C[C@H]2c2ccc(Cl)cc2)CC1 | 26 | 1100 | 94
CC(C)C[C@H](NC(=O)C1CNC1)c1cc(C(F)(F)F)ccc1N1CCN(C(=O)[C@@H]2CN(C(C)C)C[C@H]2c2ccc(Cl)cc2)CC1 | 18 | 6.6 | 80
CC(C)[C@H](NC(=O)[C@@H](C)N)c1cccc(F)c1N1CCN(C(=O)[C@@H]2CN(C(C)C)C[C@H]2c2ccc(Cl)cc2)CC1 | 4.4 | 9 | 70
CC(C)N1C[C@@H](C(=O)N2CCN(c3ccccc3Cn3cnnc3)CC2)[C@H](c2ccc(Cl)cc2)C1 | 580 | – | –

SMILES | Ki (Melanocortin receptor 4 [1]) [nM] | EC50 (Melanocortin receptor 4 [2]) [nM] | Intrinsic activity (Melanocortin receptor 4 [3]) [%]
CC(C)N1C[C@@H](C(=O)N2CCN(c3ccccc3C=O)CC2)[C@H](c2ccc(Cl)cc2)C1 | 1150 | – | –
CC(C)N1C[C@@H](C(=O)N2CCN(c3ccccc3CN3CCCC3)CC2)[C@H](c2ccc(Cl)cc2)C1 | 550 | – | –
CC(C)N1C[C@@H](C(=O)N2CCN(c3ccccc3Cn3cccn3)CC2)[C@H](c2ccc(Cl)cc2)C1 | 490 | – | –
CC(C)[C@H](N)c1cccc(F)c1N1CCN(C(=O)[C@@H]2CN(C(C)C)C[C@H]2c2ccc(Cl)cc2)CC1 | 21 | 270 | 68
CC(C)N1C[C@@H](C(=O)N2CCN(c3ccccc3CN3CCCCC3)CC2)[C@H](c2ccc(Cl)cc2)C1 | 950 | – | –
CC(C)N1C[C@@H](C(=O)N2CCN(c3ccccc3CN(C)C)CC2)[C@H](c2ccc(Cl)cc2)C1 | 1200 | – | –
CC(C)N1C[C@@H](C(=O)N2CCN(c3ccccc3CNCCN)CC2)[C@H](c2ccc(Cl)cc2)C1 | 230 | – | –
CCN(CC)Cc1ccccc1N1CCN(C(=O)[C@@H]2CN(C(C)C)C[C@H]2c2ccc(Cl)cc2)CC1 | 1200 | – | –
CC(C)C[C@H](NC(=O)CCN(C)C)c1cc(C(F)(F)F)ccc1N1CCN(C(=O)[C@@H]2CN(C(C)C)C[C@H]2c2ccc(Cl)cc2)CC1 | 10 | 91 | 76
CC(C)C[C@H](NS(C)(=O)=O)c1cc(C(F)(F)F)ccc1N1CCN(C(=O)[C@@H]2CN(C(C)C)C[C@H]2c2ccc(Cl)cc2)CC1 | 87 | 450 | 96
CC(C)CN(Cc1ccccc1N1CCN(C(=O)[C@@H]2CN(C(C)C)C[C@H]2c2ccc(Cl)cc2)CC1)C(=O)CCN | 450 | – | –
CC(C)N1C[C@@H](C(=O)N2CCN(c3ccccc3Cn3cncn3)CC2)[C@H](c2ccc(Cl)cc2)C1 | 320 | – | –
CC(C)N1C[C@@H](C(=O)N2CCN(c3ccccc3CNc3cccnc3)CC2)[C@H](c2ccc(Cl)cc2)C1 | 1600 | – | –
Cc1ccc(N2CCN(C(=O)[C@@H]3CN(C(C)C)C[C@H]3c3ccc(Cl)cc3)CC2)c([C@@H](NC(=O)CN(C)C)C(C)C)c1 | 7.1 | 170 | 100
CC(C)N1C[C@@H](C(=O)N2CCN(c3ccccc3C#N)CC2)[C@H](c2ccc(Cl)cc2)C1 | 4800 | – | –
CC(C)C[C@H](NC(=O)CN(C)C)c1cc(C(F)(F)F)ccc1N1CCN(C(=O)[C@@H]2CN(C(C)C)C[C@H]2c2ccc(Cl)cc2)CC1 | 17.3 | 52 | 99
CC(C)N1C[C@@H](C(=O)N2CCN(c3ccccc3CN(C)C3CNC3)CC2)[C@H](c2ccc(Cl)cc2)C1 | 240 | – | –

Further lines, results first:

Ki (Melanocortin receptor 4 [1]) [nM] | EC50 (Melanocortin receptor 4 [2]) [nM] | Intrinsic activity (Melanocortin receptor 4 [3]) [%] | SMILES
220 | 320 | 52 | CC(C)N1C[C@@H](C(=O)N2CCN(c3ccccc3Cn3ccnc3)CC2)[C@H](c2ccc(Cl)cc2)C1
420 | – | – | CC(C)N1C[C@@H](C(=O)N2CCN(c3ccccc3Cn3ccnn3)CC2)[C@H](c2ccc(Cl)cc2)C1
190 | – | – | CC(C)N1C[C@@H](C(=O)N2CCN(c3ccccc3CNC3CCNCC3)CC2)[C@H](c2ccc(Cl)cc2)C1
7.7 | 67 | 63 | CNCC(=O)N[C@@H](CC(C)C)c1cc(C(F)(F)F)ccc1N1CCN(C(=O)[C@@H]2CN(C(C)C)C[C@H]2c2ccc(Cl)cc2)CC1
1100 | – | – | CC(C)N1C[C@@H](C(=O)N2CCN(c3ccccc3CN)CC2)[C@H](c2ccc(Cl)cc2)C1
1700 | – | – | CC(C)N1C[C@@H](C(=O)N2CCN(c3ccccc3CNS(C)(=O)=O)CC2)[C@H](c2ccc(Cl)cc2)C1
13 | – | 44 | Cc1ccc(N2CCN(C(=O)[C@@H]3CN(C(C)C)C[C@H]3c3ccc(Cl)cc3)CC2)c([C@H](C(C)C)N(C)C)c1
280 | – | – | Cc1nccn1Cc1ccccc1N1CCN(C(=O)[C@@H]2CN(C(C)C)C[C@H]2c2ccc(Cl)cc2)CC1
510 | – | – | CC(C)CNCc1ccccc1N1CCN(C(=O)[C@@H]2CN(C(C)C)C[C@H]2c2ccc(Cl)cc2)CC1
270 | – | – | CNCCNCc1ccccc1N1CCN(C(=O)[C@@H]2CN(C(C)C)C[C@H]2c2ccc(Cl)cc2)CC1
1400 | – | – | CC(C)N1C[C@@H](C(=O)N2CCN(c3ccccc3CNc3ccccc3N)CC2)[C@H](c2ccc(Cl)cc2)C1
8.9 | 44 | 115 | CC(C)C[C@H](NC(=O)CN)c1cc(C(F)(F)F)ccc1N1CCN(C(=O)[C@@H]2CN(C(C)C)C[C@H]2c2ccc(Cl)cc2)CC1
12 | 105 | 99 | Cc1ccc(N2CCN(C(=O)[C@@H]3CN(C(C)C)C[C@H]3c3ccc(Cl)cc3)CC2)c([C@@H](N)C(C)C)c1
13 | 6.9 | 100 | CC(C)[C@H](NC(=O)CCN)c1cccc(F)c1N1CCN(C(=O)[C@@H]2CN(C(C)C)C[C@H]2c2ccc(Cl)cc2)CC1
520 | – | – | CC(C)N1C[C@@H](C(=O)N2CCN(c3ccccc3CNC3CNC3)CC2)[C@H](c2ccc(Cl)cc2)C1
